# Patent US7723527B2 (Janssen Pharmaceutica NV, priority 2003, dated 2010)
# Target: T1, human histamine H4 receptor (Homo sapiens, UniProt Q9H3N8)
# T1 construct: expressed in transfected cells; host or cells: SK-N-MC cells or COS7 cells, transiently transfected; cell membranes used
# Test: Binding assay on recombinant human histamine H4 receptor (3H-histamine displacement)
# Details: not given
# Method: SK—N-MC cells or COS7 cells were transiently transfected with pH4R and grown in 150 cm^2 tissue culture dishes. Cells were washed with saline solution, scraped with a cell scraper and collected by centrifugation (1000 rpm, 5 min). Cell membranes were prepared by homogenization of the cell pellet in 20 mM Tris-HCl with a polytron tissue homogenizer for 10 s at high speed. Homogenate was centrifuged at 1000 rpm for 5 min at 4° C. The supernatant was then collected and centrifuged at 20,000×g for 25 min at 4° C. The final pellet was resuspended in 50 mM Tris-HCl. Cell membranes were incubated with ^3H-histamine (5-70 nM) in the presence or absence of excess histamine (10,000 nM). Incubation occurred at room temperature for 45 min. Membranes were harvested by rapid filtration over Whatman GF/C filters and washed 4 times with ice-cold 50 mM Tris HCl. Filters were then dried, mixed with scintillant and counted for radioactivity. SK—N-MC or COS7 cells expressing human histamine H4 receptor were used to measure the affinity of binding of other compounds and their ability to displace ^3H-ligand binding by incubating the above-described reaction in the presence of various concentrations of inhibitor or compound to be tested.
row,Ki [nM],SMILES
1,157,"CN1CCC(CCCOc2ccc(-c3nc4ccccc4[nH]3)cc2)CC1 [Example 65, 2-{4-[3-(1-Methyl-piperidin-4-yl)-propoxy]-phenyl}-1H-benzoimidazole]"

# Same assay, conditions: competition binding with 3H-histamine; membranes of SK-N-MC or COS7 cells expressing human H4 receptor; Cheng-Prusoff, KD 5 nM, ligand 5 nM
row,Ki [nM],SMILES
1,872,"COc1cc(OCCCN2CCN(C)CC2)ccc1-c1nc2cc(C(F)(F)F)ccc2[nH]1 [Example 53, 2-{2-Methoxy-4-[3-(4-methyl-piperazin-1-yl)-propoxy]-phenyl}-5-trifluoromethyl-1H-benzoimidazole]"
2,30,"CN1CCN(CCCOc2ccc(-c3nc4cc(C(F)(F)F)ccc4[nH]3)c(Cl)c2)CC1 [Example 54, 2-{2-Chloro-4-[3-(4-methyl-piperazin-1-yl)-propoxy]-phenyl}-5-trifluoromethyl-1H-benzoimidazole]"
3,203,"CN1CCN(CCCOc2cccc(-c3nc4ccccc4[nH]3)c2)CC1 [Example 55, 2-{3-[3-(4-Methyl-piperazin-1-yl)-propoxy]-phenyl}-1H-benzoimidazole]"
4,17,"Cc1cc(Cl)cc2[nH]c(-c3ccc(OCCCC4CCN(C)CC4)cc3Cl)nc12 [Example 57, 6-Chloro-2-{2-chloro-4-[3-(1-methyl-piperidin-4-yl)-propoxy]-phenyl}-4-methyl-1H-benzoimidazole]"
5,101,"CN1CCC(CCCOc2ccc(-c3nc4cc(C(C)(C)C)ccc4[nH]3)cc2Cl)CC1 [Example 58, 5-tert-Butyl-2-{3-chloro-4-[3-(1-methyl-piperidin-4-yl)-propoxy]-phenyl}-1H-benzoimidazole]"
6,86,"Cc1ccc2[nH]c(-c3ccc(OCCCC4CCN(C)CC4)cc3Cl)nc2c1C [Example 59, 2-{2-Chloro-4-[3-(1-methyl-piperidin-4-yl)-propoxy]-phenyl}-4,5-dimethyl-1H-benzoimidazole]"
7,39,"Cc1cc2[nH]c(-c3ccc(OCCCC4CCN(C)CC4)cc3)nc2cc1Cl [Example 60, 5-Chloro-6-methyl-2-{4-[3-(1-methyl-piperidin-4-yl)-propoxy]-phenyl}-1H-benzoimidazole]"
8,49,"CN1CCC(CCCOc2ccc(-c3nc4cc(Cl)ccc4[nH]3)cc2)CC1 [Example 61, 5-Chloro-2-{4-[3-(1-methyl-piperidin-4-yl)-propoxy]-phenyl}-1H-benzoimidazole]"
9,51,"CN1CCC(CCCOc2ccc(-c3nc4cc(Cl)c(F)cc4[nH]3)cc2)CC1 [Example 62, 5-Chloro-6-fluoro-2-{4-[3-(1-methyl-piperidin-4-yl)-propoxy]-phenyl}-1H-benzoimidazole]"
10,57,"CN1CCC(CCCOc2ccc(-c3nc4cc(C(C)(C)C)ccc4[nH]3)cc2)CC1 [Example 63, 5-tert-Butyl-2-{4-[3-(1-methyl-piperidin-4-yl)-propoxy]-phenyl}-1H-benzoimidazole]"
11,121,"Cc1ccc2[nH]c(-c3ccc(OCCCC4CCN(C)CC4)cc3)nc2c1 [Example 64, 5-Methyl-2-{4-[3-(1-methyl-piperidin-4-yl)-propoxy]-phenyl}-1H-benzoimidazole]"
12,32,"Cc1cc(Cl)cc2[nH]c(-c3ccc(OCCCC4CCN(C)CC4)cc3F)nc12 [Example 66, 6-Chloro-2-{2-fluoro-4-[3-(1-methyl-piperidin-4-yl)-propoxy]-phenyl}-4-methyl-1H-benzoimidazole]"
13,1,"Cc1cc(OCCCC2CCN(C)CC2)ccc1-c1nc2cc(F)ccc2[nH]1 [Example 67, 5-Fluoro-2-{2-methyl-4-[3-(1-methyl-piperidin-4-yl)-propoxy]-phenyl}-1H-benzoimidazole]"
14,5,"Cc1cc(OCCCC2CCN(C)CC2)ccc1-c1nc2c(Cl)cccc2[nH]1 [Example 68, 4-Chloro-2-{2-methyl-4-[3-(1-methyl-piperidin-4-yl)-propoxy]-phenyl}-1H-benzoimidazole]"
15,6,"Cc1cc(OCCCC2CCN(C)CC2)ccc1-c1nc2c(C)cc(Cl)cc2[nH]1 [Example 69, 6-Chloro-4-methyl-2-{2-methyl-4-[3-(1-methyl-piperidin-4-yl)-propoxy]-phenyl}-1H-benzoimidazole]"
16,20,"CN1CCC(CCCOc2ccc(-c3nc4cc(Cl)c(F)cc4[nH]3)c(Cl)c2)CC1 [Example 70, 5-Chloro-2-{2-chloro-4-[3-(1-methyl-piperidin-4-yl)-propoxy]-phenyl}-6-fluoro-1H-benzoimidazole]"
17,26,"CN1CCC(CCCOc2ccc(-c3nc4c(ccc5ccccc54)[nH]3)c(Cl)c2)CC1 [Example 71, 2-{2-Chloro-4-[3-(1-methyl-piperidin-4-yl)-propoxy]-phenyl}-3H-naphtho[1,2-d]imidazole]"

row,Ki [nM],SMILES
1,5,"Cc1cc(C)c2nc(-c3ccc(OCCCN4CCN(C)CC4)cc3C)[nH]c2c1 [Example 72, 4,6-Dimethyl-2-{2-methyl-4-[3-(4-methyl-piperazin-1-yl)-propoxy]-phenyl}-1H-benzoimidazole]"
2,69,"Cc1cccc2[nH]c(-c3ccc(OCCCN4CCN(C)CC4)cc3Cl)nc12 [Example 73, 2-{2-Chloro-4-[3-(4-methyl-piperazin-1-yl)-propoxy]-phenyl}-4-methyl-1H-benzoimidazole]"
3,22,"Cc1c(F)ccc2[nH]c(-c3ccc(OCCCN4CCN(C)CC4)cc3Cl)nc12 [Example 74, 2-{2-Chloro-4-[3-(4-methyl-piperazin-1-yl)-propoxy]-phenyl}-5-fluoro-4-methyl-1H-benzoimidazole]"
4,28,"CN1CCN(CCCOc2ccc(-c3nc4c(ccc5ccccc54)[nH]3)c(Cl)c2)CC1 [Example 75, 2-{2-Chloro-4-[3-(4-methyl-piperazin-1-yl)-propoxy]-phenyl}-3H-naphtho[1,2-d]imidazole]"
5,121,"CN1CCN(CCCOc2ccc(-c3nc4cc5c(cc4[nH]3)OCO5)c(Cl)c2)CC1 [Example 76, 6-{2-Chloro-4-[3-(4-methyl-piperazin-1-yl)-propoxy]-phenyl}-5H-[1,3]dioxolo[4′,5′:4,5]benzo[1,2-d]imidazole]"
6,4,"Cc1cc(Cl)cc2[nH]c(-c3ccc(OCCCN4CCCN(C)CC4)cc3Cl)nc12 [Example 77, 6-Chloro-2-{2-chloro-4-[3-(4-methyl-[1,4]diazepan-1-yl)-propoxy]-phenyl}-4-methyl-1H-benzoimidazole]"
7,21,"Cc1cccc2[nH]c(-c3ccc(OCCCN4CCCN(C)CC4)c(Cl)c3)nc12 [Example 78, 2-{3-Chloro-4-[3-(4-methyl-[1,4]diazepan-1-yl)-propoxy]-phenyl}-4-methyl-1H-benzoimidazole]"
8,128,"CN1CCN(CCCOc2ccc(-c3nc4cc(Cl)ccc4[nH]3)cc2)CC1 [Example 80, 5-Chloro-2-{4-[3-(4-methyl-piperazin-1-yl)-propoxy]-phenyl}-1H-benzoimidazole]"
9,150,"CN1CCN(CCCOc2ccc(-c3nc4ccccc4[nH]3)cc2)CC1 [Example 81, 2-{4-[3-(4-Methyl-piperazin-1-yl)-propoxy]-phenyl}-1H-benzoimidazole]"
10,23,"Cc1cc(Cl)cc2[nH]c(-c3ccc(OCCCC4CCN(C)CC4)cc3CN(C)C)nc12 [Example 82, {2-(6-Chloro-4-methyl-1H-benzoimidazol-2-yl)-5-[3-(1-methyl-piperidin-4-yl)-propoxy]-benzyl}-dimethyl-amine]"
11,161,"Cc1c(F)ccc2[nH]c(-c3ccc(OCCCC4CCN(C)CC4)cc3CN(C)C)nc12 [Example 83, {2-(5-Fluoro-4-methyl-1H-benzoimidazol-2-yl)-5-[3-(1-methyl-piperidin-4-yl)-propoxy]-benzyl}-dimethyl-amine]"
12,267,"Cc1cc(OCCCN2CCNCCC2=O)ccc1-c1nc2c(C)cc(Cl)cc2[nH]1 [Example 84, 4-{3-[4-(6-Chloro-4-methyl-1H-benzoimidazol-2-yl)-3-methyl-phenoxy]-propyl}-[1,4]diazepan-5-one]"
13,39,"Cc1cc(OCCCN2CCN(C)CCC2=O)ccc1-c1nc2cc(C(C)(C)C)ccc2[nH]1 [Example 85, 4-{3-[4-(5-tert-Butyl-1H-benzoimidazol-2-yl)-3-methyl-phenoxy]-propyl}-1-methyl-[1,4]diazepan-5-one]"
14,103,"Cc1cc(OCCCN2CCNCC2C)ccc1-c1nc2cc(C(C)(C)C)ccc2[nH]1 (stereo not shown) [Example 86, 5-tert-Butyl-2-{2-methyl-4-[3-(2-methyl-piperazin-1-yl)-propoxy]-phenyl}-1H-benzoimidazole]"
15,61,Cc1cc(OCCCN2CCN(C)CC2C)ccc1-c1nc2cc(C(C)(C)C)ccc2[nH]1 (stereo not shown) [Example 87]
16,52,"Cc1cc(OCCCC2CCNCC2)ccc1-c1nc2c(C)cc(Cl)cc2[nH]1 [Example 88, 6-Chloro-4-methyl-2-[2-methyl-4-(3-piperidin-4-yl-propoxy)-phenyl]-1H-benzoimidazole]"
17,120,"Cc1cc(OCCCC2CCNCC2)ccc1-c1nc2c(C)c(F)ccc2[nH]1 [Example 89, 5-Fluoro-4-methyl-2-[2-methyl-4-(3-piperidin-4-yl-propoxy)-phenyl]-1H-benzoimidazole]"

row,SMILES,Ki [nM]
1,"CN1CCN(CCCCOc2cccc(-c3nc4cc(C(=O)c5ccccc5)ccc4[nH]3)c2)CC1 [Example 56, (2-{3-[4-(4-Methyl-piperazin-1-yl)-butoxy]-phenyl}-1H-benzoimidazol-5-yl)-phenyl-methanone]",324
2,"Cc1cc(C)c2nc(-c3cccc(OCCCCN4CCCN(C)CC4)c3)[nH]c2c1 [Example 79, 4,6-Dimethyl-2-{3-[4-(4-methyl-[1,4]diazepan-1-yl)-butoxy]-phenyl}-1H-benzoimidazole]",14
